Assay results from patent US20260092071A1, “COMPOUNDS AND COMPOSITIONS AS SMARCA2/4 DEGRADERS AND USES THEREOF” (REGENTS OF THE UNIVERSITY OF MICHIGAN, priority 2022, published 2026).
Like-named read-outs stand apart in the source and are kept apart here.

Assays:
[1] = biological target: SMARCA2 (Homo sapiens, UniProt P51531); experiment: HiBiT assay for protein degradation, Hela SMARCA2-HiBiT cells (A series); format: cell-based; design: Hela cells were genetically modified via CRISPR/Cas9 to fuse HiBiT to the carboxy terminus of SMARCA2; host or cells: HeLa (CRISPR/Cas9 HiBiT knock-in); details: for DC50: read-out: SMARC A2 Hela HiBit DC50; for Dmax: read-out: SMARC A2 Hela HiBit Dmax (%);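 on SMARC A2 Hela HiBit Dmax (%): 24 h compound treatment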
Description: (§1) Hela cells were genetically modified via CRISPR/Cas9 to fuse HiBiT to the carboxy terminus of SMARCA2 (Promega CS302365) or SMARCA4 (Promega CS3023225). Cells were cultured in DMEM containing 10% FBS and 1% (Vol:Vol) penicillin-streptomycin. […] At the end of experiment, levels of SMARCA2 or SMARCA4 expression were assessed with Nano-Glo® HiBiT Lytic Detection Assay (Promega N3050). IC50 was obtained using the GraphPad Prism data analysis software.

[2] = biological target: SMARCA4 (Homo sapiens, UniProt P51532); experiment: HiBiT assay for protein degradation, Hela SMARCA4-HiBiT cells (A series); format: cell-based; design: fuse HiBiT to the carboxy terminus of SMARCA2 (Promega CS302365) or SMARCA4 (Promega CS3023225); host or cells: HeLa (CRISPR/Cas9 HiBiT knock-in); details: for Dmax: read-out: SMARC A4 Hela HiBit Dmax(%); for DC50: read-out: SMARC A4 Hela HiBit DC50
Description: as §1

[3] = Hela SMARCA2-HiBiT cells, 24 hours treatment
[4] = Hela SMARCA4-HiBiT cells, 24 hours treatment

SMARCA2, sequence (P51531 whole entry): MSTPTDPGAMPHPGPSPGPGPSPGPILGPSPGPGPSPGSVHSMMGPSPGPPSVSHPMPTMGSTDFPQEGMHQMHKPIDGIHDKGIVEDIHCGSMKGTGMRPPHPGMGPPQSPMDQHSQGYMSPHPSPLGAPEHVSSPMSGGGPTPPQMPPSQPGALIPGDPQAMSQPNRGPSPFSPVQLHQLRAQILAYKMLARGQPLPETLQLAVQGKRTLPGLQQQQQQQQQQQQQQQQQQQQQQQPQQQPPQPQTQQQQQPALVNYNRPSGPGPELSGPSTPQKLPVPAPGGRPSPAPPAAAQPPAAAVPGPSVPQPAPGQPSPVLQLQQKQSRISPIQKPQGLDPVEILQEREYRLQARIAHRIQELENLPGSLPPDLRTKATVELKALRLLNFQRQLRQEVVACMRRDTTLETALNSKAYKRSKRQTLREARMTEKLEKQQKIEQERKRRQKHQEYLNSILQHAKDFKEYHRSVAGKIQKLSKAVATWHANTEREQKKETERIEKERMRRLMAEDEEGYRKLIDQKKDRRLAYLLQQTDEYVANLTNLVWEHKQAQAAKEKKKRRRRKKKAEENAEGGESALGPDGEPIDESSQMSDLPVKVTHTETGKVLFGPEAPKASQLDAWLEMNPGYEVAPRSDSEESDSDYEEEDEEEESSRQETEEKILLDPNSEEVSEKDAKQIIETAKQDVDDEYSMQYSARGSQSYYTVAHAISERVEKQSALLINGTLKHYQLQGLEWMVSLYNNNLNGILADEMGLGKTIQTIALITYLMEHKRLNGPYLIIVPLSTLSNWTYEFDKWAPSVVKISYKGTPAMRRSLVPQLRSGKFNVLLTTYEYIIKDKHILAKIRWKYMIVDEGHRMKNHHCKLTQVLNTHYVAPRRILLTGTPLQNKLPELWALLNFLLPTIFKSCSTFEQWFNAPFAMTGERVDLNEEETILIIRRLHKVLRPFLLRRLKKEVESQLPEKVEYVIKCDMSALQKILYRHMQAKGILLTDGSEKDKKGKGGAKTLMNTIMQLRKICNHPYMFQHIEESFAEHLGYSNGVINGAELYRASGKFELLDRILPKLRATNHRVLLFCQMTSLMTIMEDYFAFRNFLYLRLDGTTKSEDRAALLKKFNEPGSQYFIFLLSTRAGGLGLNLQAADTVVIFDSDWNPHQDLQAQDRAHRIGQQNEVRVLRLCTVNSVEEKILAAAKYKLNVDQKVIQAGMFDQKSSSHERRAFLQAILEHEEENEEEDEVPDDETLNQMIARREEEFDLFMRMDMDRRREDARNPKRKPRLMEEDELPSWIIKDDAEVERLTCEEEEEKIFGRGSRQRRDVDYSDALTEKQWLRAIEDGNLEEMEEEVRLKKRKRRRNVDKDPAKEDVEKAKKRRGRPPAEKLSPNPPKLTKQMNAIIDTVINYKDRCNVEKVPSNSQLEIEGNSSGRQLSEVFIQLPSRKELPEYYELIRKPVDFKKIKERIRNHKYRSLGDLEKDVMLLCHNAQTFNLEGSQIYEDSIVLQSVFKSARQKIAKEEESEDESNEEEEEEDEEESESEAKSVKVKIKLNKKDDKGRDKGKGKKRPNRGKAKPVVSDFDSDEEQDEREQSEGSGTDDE
SMARCA4, sequence (P51532 whole entry): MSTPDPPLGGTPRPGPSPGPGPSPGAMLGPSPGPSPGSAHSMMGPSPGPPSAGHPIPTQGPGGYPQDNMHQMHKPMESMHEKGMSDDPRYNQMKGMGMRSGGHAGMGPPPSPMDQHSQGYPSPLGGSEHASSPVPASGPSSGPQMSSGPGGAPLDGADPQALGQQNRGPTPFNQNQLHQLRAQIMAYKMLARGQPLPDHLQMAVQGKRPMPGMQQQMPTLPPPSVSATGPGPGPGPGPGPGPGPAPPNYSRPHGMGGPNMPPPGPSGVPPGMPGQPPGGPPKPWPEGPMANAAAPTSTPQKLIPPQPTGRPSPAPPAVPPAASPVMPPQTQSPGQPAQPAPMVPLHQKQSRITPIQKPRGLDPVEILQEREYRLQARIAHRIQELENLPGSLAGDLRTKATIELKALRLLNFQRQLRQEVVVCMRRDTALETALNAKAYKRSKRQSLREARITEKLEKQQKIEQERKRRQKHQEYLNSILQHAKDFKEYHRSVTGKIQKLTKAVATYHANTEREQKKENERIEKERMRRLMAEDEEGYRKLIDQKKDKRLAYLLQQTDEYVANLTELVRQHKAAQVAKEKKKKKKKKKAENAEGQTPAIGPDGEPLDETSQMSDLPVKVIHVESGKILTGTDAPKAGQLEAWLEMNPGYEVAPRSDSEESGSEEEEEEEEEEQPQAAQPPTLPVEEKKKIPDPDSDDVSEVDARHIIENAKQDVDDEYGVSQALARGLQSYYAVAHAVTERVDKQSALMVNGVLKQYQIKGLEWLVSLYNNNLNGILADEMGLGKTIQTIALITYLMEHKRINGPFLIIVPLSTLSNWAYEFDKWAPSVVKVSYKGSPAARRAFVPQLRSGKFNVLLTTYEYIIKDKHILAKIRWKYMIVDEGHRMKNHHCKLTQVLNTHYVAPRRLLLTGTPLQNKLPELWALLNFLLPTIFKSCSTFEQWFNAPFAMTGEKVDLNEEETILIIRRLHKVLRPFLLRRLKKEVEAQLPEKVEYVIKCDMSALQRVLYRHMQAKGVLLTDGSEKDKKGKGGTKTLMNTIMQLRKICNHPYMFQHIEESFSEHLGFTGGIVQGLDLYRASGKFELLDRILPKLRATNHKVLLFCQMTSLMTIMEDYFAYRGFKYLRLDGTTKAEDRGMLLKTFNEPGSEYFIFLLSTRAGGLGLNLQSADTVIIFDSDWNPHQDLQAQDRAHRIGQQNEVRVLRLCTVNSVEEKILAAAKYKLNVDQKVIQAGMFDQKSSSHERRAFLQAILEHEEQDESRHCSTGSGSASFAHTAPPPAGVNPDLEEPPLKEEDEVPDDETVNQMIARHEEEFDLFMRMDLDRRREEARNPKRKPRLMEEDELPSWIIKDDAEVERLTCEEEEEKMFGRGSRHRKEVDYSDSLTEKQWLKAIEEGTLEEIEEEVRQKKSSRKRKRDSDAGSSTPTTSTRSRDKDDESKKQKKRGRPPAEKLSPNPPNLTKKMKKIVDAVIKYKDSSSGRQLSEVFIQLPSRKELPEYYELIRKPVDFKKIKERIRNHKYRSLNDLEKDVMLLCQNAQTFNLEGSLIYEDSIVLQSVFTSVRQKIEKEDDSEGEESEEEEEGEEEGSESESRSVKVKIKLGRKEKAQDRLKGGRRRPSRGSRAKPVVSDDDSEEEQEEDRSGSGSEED

SMILES	DC50 [1, 3]	Dmax [1, 3]	SMARC A4 Hela HiBit DC50(nM) [2, 4]	Dmax [2, 4]	Dmax ([1]; HeLa)	Dmax ([2]; HeLa)	DC50 [2, 4]	SMARC A2 Hela HiBit Dmax (%) [1, 3]	DC50 [1]	SMARC A4 Hela HiBit Dmax(%) [2, 4]	DC50 [2]
Cc1ncsc1-c1ccc([C@H](C)NC(=O)[C@@H]2C[C@@H](O)CN2C(=O)[C@@H](NC(=O)[C@H]2CC[C@H](CN3CCC(N4CCC(c5ccc6c(c5)C5(CCCCC5)c5nc(=O)c7c(Cl)cccc7n5-6)CC4)CC3)CC2)C(C)(C)C)cc1 [Compound A13, (2S,4R)-1-((S)-2-((1r,4S)-4-((4-(4′-chloro-5′-oxo-5′H-spiro[cyclohexane-1,7′-indolo[1,2-a]quinazolin]-9′-yl)-[1,4′-bipiperidin]-1′-yl)methyl)cyclohexane-1-carboxamido)-3,3-dimethylbutanoyl)-4-hydroxy-N—((S)-1-(4-(4-methylthiazol-5-yl)phenyl)ethyl)pyrrolidine-2-carboxamide]	< 0.1 µM	70 to 90%	No fit	< 50%	–	–	–	–	–	–	–
Cc1ncsc1-c1ccc([C@H](C)NC(=O)[C@@H]2C[C@@H](O)CN2C(=O)[C@@H](NC(=O)[C@H]2CC[C@H](CN3CCC(c4ccc5c(c4)C4(CCCCC4)c4nc(=O)c6c(Br)cccc6n4-5)CC3)CC2)C(C)(C)C)cc1 [Compound A14, (2S,4R)-1-((S)-2-((1r,4S)-4-((4-(4′-bromo-5′-oxo-5′H-spiro[cyclohexane-1,7′-indolo[1,2-a]quinazolin]-9′-yl)piperidin-1-yl)methyl)cyclohexane-1-carboxamido)-3,3-dimethylbutanoyl)-4-hydroxy-N—((S)-1-(4-(4-methylthiazol-5-yl)phenyl)ethyl)pyrrolidine-2-carboxamide]	< 0.1 µM	–	–	–	> 90%	50 to 69%	0.1 to 0.5 µM	–	–	–	–
Cc1ncsc1-c1ccc([C@H](CN(C)C)NC(=O)[C@@H]2C[C@@H](O)CN2C(=O)[C@@H](NC(=O)[C@H]2CC[C@H](CN3CCC(c4ccc5c(c4)C4(CCCCC4)c4nc(=O)c6c(Br)cccc6n4-5)CC3)CC2)C(C)(C)C)cc1 [Compound A15]	< 0.1 µM	> 90%	No Fit	< 50%	–	–	–	–	–	–	–
Cc1ncsc1-c1ccc([C@H](CN2CCOCC2)NC(=O)[C@@H]2C[C@@H](O)CN2C(=O)[C@@H](NC(=O)[C@H]2CC[C@H](CN3CCC(c4ccc5c(c4)C4(CCCCC4)c4nc(=O)c6c(Br)cccc6n4-5)CC3)CC2)C(C)(C)C)cc1 [Compound A16, (2S,4R)-1-((S)-2-((1r,4S)-4-((4-(4′-bromo-5′-oxo-5′H-spiro[cyclohexane-1,7′-indolo[1,2-a]quinazolin]-9′-yl)piperidin-1-yl)methyl)cyclohexane-1-carboxamido)-3,3-dimethylbutanoyl)-4-hydroxy-N—((R)-1-(4-(4-methylthiazol-5-yl)phenyl)-2-morpholinoethyl)pyrrolidine-2-carboxamide]	< 0.1 µM	> 90%	–	50 to 69%	–	–	0.501 to 1 µM	–	–	–	–
Cc1ncsc1-c1ccc([C@H](CCCCCN2CCC(c3ccc4c(c3)C3(CCCCC3)c3nc(=O)c5c(Br)cccc5n3-4)CC2)NC(=O)[C@@H]2C[C@@H](O)CN2C(=O)[C@@H](NC(=O)C2(N(C)C)CC2)C(C)(C)C)cc1 [Compound A17, (2S,4R)—N—((S)-6-(4-(4′-bromo-5′-oxo-5′H-spiro[cyclohexane-1,7′-indolo[1,2-a]quinazolin]-9′-yl)piperidin-1-yl)-1-(4-(4-methylthiazol-5-yl)phenyl)hexyl)-1-((S)-2-(1-(dimethylamino)cyclopropane-1-carboxamido)-3,3-dimethylbutanoyl)-4-hydroxypyrrolidine-2-carboxamide]	< 0.1 µM	70 to 90%	–	> 90%	–	–	< 0.1 µM	–	–	–	–
Cc1ncsc1-c1ccc([C@H](CCCCCN2CCC(c3ccc4c(c3)C3(CCCCC3)c3nc(=O)c5c(Br)cccc5n3-4)CC2)NC(=O)[C@@H]2C[C@@H](O)CN2C(=O)[C@@H](NC(=O)C2(CN(C)C)CC2)C(C)(C)C)cc1 [Compound A18, (2S,4R)—N—((S)-6-(4-(4′-bromo-5′-oxo-5′H-spiro[cyclohexane-1,7′-indolo[1,2-a]quinazolin]-9′-yl)piperidin-1-yl)-1-(4-(4-methylthiazol-5-yl)phenyl)hexyl)-1-((S)-2-(1-((dimethylamino)methyl)cyclopropane-1-carboxamido)-3,3-dimethylbutanoyl)-4-hydroxypyrrolidine-2-carboxamide]	–	–	–	–	–	–	–	B (B (70-90% degradation))	< 0.1 µM	B (B (70-90% degradation))	< 0.1 µM
Cc1ncsc1-c1ccc([C@H](C)NC(=O)[C@@H]2C[C@@H](O)CN2C(=O)[C@@H](NC(=O)C2CC(CN3CCC(c4ccc5c(c4)C4(CCCCC4)c4nc(=O)c6c(Br)cccc6n4-5)CC3)C2)C(C)(C)C)cc1 (stereo partly drawn) [Compound A20, (2S,4R)-1-((S)-2-(3-((4-(4′-bromo-5′-oxo-5′H-spiro[cyclohexane-1,7′-indolo[1,2-a]quinazolin]-9′-yl)piperidin-1-yl)methyl)cyclobutane-1-carboxamido)-3,3-dimethylbutanoyl)-4-hydroxy-N—((S)-1-(4-(4-methylthiazol-5-yl)phenyl)ethyl)pyrrolidine-2-carboxamide]	–	–	–	< 50%	> 90%	–	–	–	< 0.1 µM	–	> 1 µM
Cc1ncsc1-c1ccc([C@H](CN2CCOCC2)NC(=O)[C@@H]2C[C@@H](O)CN2C(=O)[C@@H](NC(=O)C2CC(CN3CCC(c4ccc5c(c4)C4(CCCCC4)c4nc(=O)c6c(Br)cccc6n4-5)CC3)C2)C(C)(C)C)cc1 (stereo partly drawn) [Compound A21, (2S,4R)-1-((S)-2-(3-((4-(4′-bromo-5′-oxo-5′H-spiro[cyclohexane-1,7′-indolo[1,2-a]quinazolin]-9′-yl)piperidin-1-yl)methyl)cyclobutane-1-carboxamido)-3,3-dimethylbutanoyl)-4-hydroxy-N—((R)-1-(4-(4-methylthiazol-5-yl)phenyl)-2-morpholinoethyl)pyrrolidine-2-carboxamide]	–	–	–	–	–	–	–	A (A (>90% degradation))	0.1 to 0.5 µM	C (C (50-69% degradation))	0.1 to 0.5 µM
Cc1ncsc1-c1ccc([C@H](CN2CCOCC2)NC(=O)[C@@H]2C[C@@H](O)CN2C(=O)[C@@H](NC(=O)C23CCC(CN4CCC(c5ccc6c(c5)C5(CCCCC5)c5nc(=O)c7c(Br)cccc7n5-6)CC4)(CC2)C3)C(C)(C)C)cc1 [Compound A22, (2S,4R)-1-((S)-2-(4-((4-(4′-bromo-5′-oxo-5′H-spiro[cyclohexane-1,7′-indolo[1,2-a]quinazolin]-9′-yl)piperidin-1-yl)methyl)bicyclo[2.2.1]heptane-1-carboxamido)-3,3-dimethylbutanoyl)-4-hydroxy-N—((R)-1-(4-(4-methylthiazol-5-yl)phenyl)-2-morpholinoethyl)pyrrolidine-2-carboramide]	–	–	–	–	–	–	–	A (A (>90% degradation))	< 0.1 µM	A (A (>90% degradation))	< 0.1 µM
Cc1ncsc1-c1ccc([C@H](C)NC(=O)[C@@H]2C[C@@H](O)CN2C(=O)[C@@H](NC(=O)C23CCC(CN4CCC(c5ccc6c(c5)-n5c(nc(=O)c7c(Br)cccc75)C65CCCCC5)CC4)(CC2)C3)C(C)(C)C)cc1 [Compound A23, (2S,4R)-1-((S)-2-(4-((4-(4′-bromo-5′-oxo-5′H-spiro[cyclohexane-1,7′-indolo[1,2-a]quinazolin]-10′-yl)piperidin-1-yl)methyl)bicyclo[2.2.1]heptane-1-carboxamido)-3,3-dimethylbutanoyl)-4-hydroxy-N—((S)-1-(4-(4-methylthiazol-5-yl)phenyl)ethyl)pyrrolidine-2-carboxamide]	–	–	–	70 to 90%	> 90%	–	–	–	< 0.1 µM	–	0.1 to 0.5 µM
